Reference: ChEMBL document CHEMBL1201861, “Genomics of Drug Sensitity in Cancer screening data, Wellcome Trust Sanger Institute”

Legend:
Test in all cases: cells
NOMO-1 = format: functional, cell-based; settings: Homo sapiens;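 further: growth inhibition of human NOMO-1 cells measured by a cell viability assay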
Description: SANGER: Inhibition of human NOMO-1 cell growth in a cell viability assay.

SAOS-2 = format: functional, cell-based, Homo sapiens; settings: Homo sapiens, SAOS-2;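 further: growth inhibition of human Saos-2 cells determined by a cell viability assay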
Description: SANGER: Inhibition of human Saos-2 cell growth in a cell viability assay.

OAW-28 = format: functional, cell-based, Homo sapiens; settings: Homo sapiens, OAW-28;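 further: growth inhibition of OAW-28 cells, read out with a cell viability assay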
Description: SANGER: Inhibition of human OAW-28 cell growth in a cell viability assay.

HuO9 = format: functional, cell-based, Homo sapiens; settings: Homo sapiens, HuO9;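 further: growth inhibition of HuO9 cells, read out with a cell viability assay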
Description: SANGER: Inhibition of human HuO9 cell growth in a cell viability assay.

MOLT-13 = format: functional, cell-based; settings: Homo sapiens;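 further: IC50 for suppression of MOLT-13 cell growth, read out with a cell viability assay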
Description: SANGER: Inhibition of human MOLT-13 cell growth in a cell viability assay.

CAL-33 = format: functional, cell-based, Homo sapiens; settings: Homo sapiens, CAL-33;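 further: growth inhibition of CAL-33 cells, read out with a cell viability assay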
Description: SANGER: Inhibition of human CAL-33 cell growth in a cell viability assay.

NCI-H82 = format: functional, cell-based; settings: Homo sapiens;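 further: growth inhibition of NCI-H82 cells, measured with a cell viability readout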
Description: SANGER: Inhibition of human NCI-H82 cell growth in a cell viability assay.

NCI-H1304 = format: functional, cell-based; settings: Homo sapiens;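 further: growth inhibition of the cancer cell line, measured in a cell viability assay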
Description: SANGER: Inhibition of human NCI-H1304 cell growth in a cell viability assay.

NCI-H1092 = format: functional, cell-based; settings: Homo sapiens;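 further: cell growth inhibition measured with a cell viability assay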
Description: SANGER: Inhibition of human NCI-H1092 cell growth in a cell viability assay.

Panc1005 = format: functional, cell-based, Homo sapiens; settings: Homo sapiens, Panc1005;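 further: growth inhibition of human PANC-10-05 cells, measured by a cell viability assay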
Description: SANGER: Inhibition of human PANC-10-05 cell growth in a cell viability assay.

8505C = format: functional, cell-based, Homo sapiens; settings: Homo sapiens, 8505C
Description: SANGER: Inhibition of human 8505C cell growth in a cell viability assay.

NB7 = format: functional, cell-based; settings: Homo sapiens;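 further: growth inhibition of NB7 cells, read out with a cell viability assay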
Description: SANGER: Inhibition of human NB7 cell growth in a cell viability assay.

LAMA-84 = format: functional, cell-based; settings: Homo sapiens;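 further: growth inhibition of LAMA-84 cells, read out with a cell viability assay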
Description: SANGER: Inhibition of human LAMA-84 cell growth in a cell viability assay.

ZR-75-30 = format: functional, cell-based; settings: Homo sapiens;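 further: growth inhibition of ZR-75-30 cells, measured with a cell viability readout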
Description: SANGER: Inhibition of human ZR-75-30 cell growth in a cell viability assay.

OC-314 = format: functional, cell-based; settings: Homo sapiens
Description: SANGER: Inhibition of human OC-314 cell growth in a cell viability assay.

HN = format: functional, cell-based, Homo sapiens; settings: Homo sapiens, HN
Description: SANGER: Inhibition of human HN cell growth in a cell viability assay.

SW872 = format: functional, cell-based, Homo sapiens; settings: Homo sapiens, SW872;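 further: growth inhibition of SW872 cells, read out by a viability assay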
Description: SANGER: Inhibition of human SW872 cell growth in a cell viability assay.

DU-145 = format: functional, cell-based, Homo sapiens; settings: Homo sapiens, DU-145
Description: SANGER: Inhibition of human DU-145 cell growth in a cell viability assay.

KNS-81-FD = format: functional, cell-based, Homo sapiens; settings: Homo sapiens, KNS-81-FD;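 further: growth inhibition of KNS-81-FD cells, read out with a cell viability assay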
Description: SANGER: Inhibition of human KNS-81-FD cell growth in a cell viability assay.

A704 = format: functional, cell-based, Homo sapiens; settings: Homo sapiens, A704;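 further: growth inhibition of human A704 cells, read out with a cell viability assay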
Description: SANGER: Inhibition of human A704 cell growth in a cell viability assay.

CAL-62 = format: functional, cell-based, Homo sapiens; settings: Homo sapiens, CAL-62;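 further: growth inhibition of CAL-62 cells, read out with a cell viability assay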
Description: SANGER: Inhibition of human CAL-62 cell growth in a cell viability assay.

LAN-6 = format: functional, cell-based, Homo sapiens; settings: Homo sapiens, LAN-6;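 further: growth inhibition of LAN-6 cells, determined with a cell viability assay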
Description: SANGER: Inhibition of human LAN-6 cell growth in a cell viability assay.

NCI-H1648 = format: functional, cell-based, Homo sapiens; settings: Homo sapiens, NCI-H1648;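 further: cell viability assay measuring inhibition of NCI-H1648 cell growth, from the Sanger screening data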
Description: SANGER: Inhibition of human NCI-H1648 cell growth in a cell viability assay.

NCI-H2405 = format: functional, cell-based, Homo sapiens; settings: Homo sapiens, NCI-H2405;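 further: growth inhibition of the human cell line, read out with a cell viability assay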
Description: SANGER: Inhibition of human NCI-H2405 cell growth in a cell viability assay.

H-EMC-SS = format: functional, cell-based; settings: Homo sapiens
Description: SANGER: Inhibition of human H-EMC-SS cell growth in a cell viability assay.

NCI-H810 = format: functional, cell-based, Homo sapiens; settings: Homo sapiens, NCI-H810;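 further: IC50 reflects inhibition of cancer cell line growth, read out with a cell viability assay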
Description: SANGER: Inhibition of human NCI-H810 cell growth in a cell viability assay.

NCI-H2029 = format: functional, cell-based; settings: Homo sapiens;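 further: Read-out is a viability assay on the cultured cells, and IC50 is the concentration that suppresses cell growth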
Description: SANGER: Inhibition of human NCI-H2029 cell growth in a cell viability assay.

23132-87 = format: functional, cell-based, Homo sapiens; settings: Homo sapiens
Description: SANGER: Inhibition of human 23132-87 cell growth in a cell viability assay.

SJRH30 = format: functional, cell-based; settings: Homo sapiens;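 further: growth inhibition of human SJRH30 cells, read out with a cell viability assay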
Description: SANGER: Inhibition of human SJRH30 cell growth in a cell viability assay.

LB996-RCC = format: functional, cell-based; settings: Homo sapiens
Description: SANGER: Inhibition of human LB996-RCC cell growth in a cell viability assay.

Compound	IC50 (NOMO-1)	IC50 (SAOS-2)	IC50 (OAW-28)	IC50 (HuO9)	IC50 (MOLT-13)	IC50 (CAL-33)	IC50 (NCI-H82)	IC50 (NCI-H1304)	IC50 (NCI-H1092)	IC50 (Panc1005)	IC50 (8505C)	IC50 (NB7)	IC50 (LAMA-84)	IC50 (ZR-75-30)	IC50 (OC-314)	IC50 (HN)	IC50 (SW872)	IC50 (DU-145)	IC50 (KNS-81-FD)	IC50 (A704)	further results
O=C(c1cc(Cc2n[nH]c(=O)c3ccccc23)ccc1F)N1CCN(C(=O)C2CC2)CC1 [OLAPARIB]	> 5000 nM	> 5000 nM	> 5000 nM	> 5000 nM	> 5000 nM	> 5000 nM	> 5000 nM	> 5000 nM	> 5000 nM	> 5000 nM	> 5000 nM	> 5000 nM	> 5000 nM	> 5000 nM	> 5000 nM	> 5000 nM	> 5000 nM	> 5000 nM	> 5000 nM	> 5000 nM	IC50 (CAL-62): > 5000 nM; IC50 (LAN-6): > 5000 nM; IC50 (NCI-H1648): > 5000 nM; IC50 (NCI-H2405): > 5000 nM; IC50 (H-EMC-SS): > 5000 nM; IC50 (NCI-H810): > 5000 nM; IC50 (NCI-H2029): > 5000 nM
CC(=O)O[C@@]12CO[C@@H]1C[C@H](O)[C@@]1(C)C(=O)[C@H](O)C3=C(C)[C@@H](OC(=O)[C@H](O)[C@@H](NC(=O)OC(C)(C)C)c4ccccc4)C[C@@](O)([C@@H](OC(=O)c4ccccc4)[C@H]21)C3(C)C [DOCETAXEL]	5.13 nM	1.68 nM	> 10 nM	3.46 nM	> 10 nM	1.04 nM	8.22 nM	> 10 nM	> 10 nM	> 10 nM	0.854 nM	> 10 nM	> 10 nM	> 10 nM	2.56 nM	0.758 nM	> 10 nM	> 10 nM	3.99 nM	> 10 nM	IC50 (23132-87): 1.55 nM; IC50 (CAL-62): 0.185 nM; IC50 (LAN-6): > 10 nM; IC50 (NCI-H1648): 6.01 nM; IC50 (NCI-H2405): > 10 nM; IC50 (H-EMC-SS): > 10 nM; IC50 (NCI-H810): 6.22 nM; IC50 (NCI-H2029): > 10 nM
COc1cc(F)c(F)c(Nc2ccc(I)cc2F)c1NS(=O)(=O)C1(CC(O)CO)CC1 (stereo not drawn)	137 nM	> 5000 nM	> 5000 nM	> 5000 nM	> 5000 nM	1560 nM	> 5000 nM	> 5000 nM	> 5000 nM	> 5000 nM	2580 nM	4710 nM	318 nM	> 5000 nM	> 5000 nM	1120 nM	774 nM	1060 nM	2410 nM	4700 nM	IC50 (SJRH30): > 5000 nM; IC50 (LB996-RCC): > 5000 nM; IC50 (CAL-62): 682 nM; IC50 (LAN-6): 521 nM; IC50 (NCI-H1648): > 5000 nM; IC50 (NCI-H2405): 1870 nM; IC50 (H-EMC-SS): 917 nM; IC50 (NCI-H810): > 5000 nM; IC50 (NCI-H2029): > 5000 nM
Nc1ccn([C@@H]2O[C@H](CO)[C@@H](O)[C@@H]2O)c(=O)n1 [CYTARABINE]	> 2000 nM	682 nM	> 2000 nM	> 2000 nM	> 2000 nM	1180 nM	> 2000 nM	> 2000 nM	> 2000 nM	802 nM	> 2000 nM	1520 nM	335 nM	> 2000 nM	399 nM	221 nM	> 2000 nM	> 2000 nM	> 2000 nM	> 2000 nM	IC50 (23132-87): 319 nM; IC50 (SJRH30): 683 nM; IC50 (CAL-62): 710 nM; IC50 (LAN-6): > 2000 nM; IC50 (NCI-H1648): > 2000 nM; IC50 (NCI-H2405): > 2000 nM; IC50 (H-EMC-SS): 145 nM; IC50 (NCI-H810): > 2000 nM; IC50 (NCI-H2029): > 2000 nM
